# Source: US12226424B2, “Target protein degradation compounds, their anti-tumor use, their intermediates and use of intermediates” (ShanghaiTech University, priority 2018, dated 2025)
# Tested on: CDK4/6 protein
# Test: Western-blot determination of CDK4/6 protein degradation (DC50) in T-47D cells
# Format: cell-based, human
# Details: 24 h drug treatment, read-out: DC50(nM)/T-47D cell line
row,DC50 [nM],Structure (SMILES)
1,1 to 10,"CC(=O)c1c(C)c2cnc(Nc3ccc(N4CCN(C(=O)COCCOCCOCCSc5cccc6c5C(=O)N(C5CCC(=O)NC5=O)C6=O)CC4)cn3)nc2n(C2CCCC2)c1=O (stereo not drawn) [SIAIS219060, 4-((2-(2-(2-(2-(4-(6-((6-acetyl-8-cyclopentyl-5-methyl-7-oxo-7,8-dihydropyrido[2,3-d]pyrimidin-2-yl)amino)pyridin-3-yl)piperazin-1-yl)-2-oxoethoxy)ethoxy)ethoxy)ethyl)thio)-2-(2,6-dioxopiperidin-3-yl)isoindoline-1,3-dione]"
2,1 to 10,"CC(=O)c1c(C)c2cnc(Nc3ccc(N4CCN(C(=O)COCCOCCOCCOCCOCCSc5cccc6c5C(=O)N(C5CCC(=O)NC5=O)C6=O)CC4)cn3)nc2n(C2CCCC2)c1=O (stereo not drawn) [SIAIS219062, 4-((17-(4-(6-((6-acetyl-8-cyclopentyl-5-methyl-7-oxo-7,8-dihydropyrido[2,3-d]pyrimidin-2-yl)amino)pyridin-3-yl)piperazin-1-yl)-17-oxo-3,6,9,12,15-pentaoxaheptadecyl)thio)-2-(2,6-dioxopiperidin-3-yl)isoindoline-1,3-dione]"
3,< 1,"CC(=O)c1c(C)c2cnc(Nc3ccc(N4CCN(CCSc5cccc6c5C(=O)N(C5CCC(=O)NC5=O)C6=O)CC4)cn3)nc2n(C2CCCC2)c1=O (stereo not drawn) [SIAIS219063, 4-((2-(4-(6-((6-acetyl-8-cyclopentyl-5-methyl-7-oxo-7,8-dihydropyrido[2,3-d]pyrimidin-2-yl)amino)pyridin-3-yl)piperazin-1-yl)ethyl)thio)-2-(2,6-dioxopiperidin-3-yl)isoindoline-1,3-dione]"
4,< 1,"CN(C)C(=O)c1cc2cnc(Nc3ccc(N4CCN(C(=O)CCCCCCSc5cccc6c5CN(C5CCC(=O)NC5=O)C6=O)CC4)cn3)nc2n1C1CCCC1 (stereo not drawn) [SIAIS219091, 7-cyclopentyl-2-((5-(4-(7-((2-(2,6-dioxopiperidin-3-yl)-1-oxoisoindolin-4-yl)thio)heptanoyl)piperazin-1-yl)pyridin-2-yl)amino)-N,N-dimethyl-7H-pyrrolo[2,3-d]pyrimidine-6-carboxamide]"
5,1 to 10,"CN(C)C(=O)c1cc2cnc(Nc3ccc(N4CCN(C(=O)CCCSc5cccc6c5C(=O)N(C5CCC(=O)NC5=O)C6=O)CC4)cn3)nc2n1C1CCCC1 (stereo not drawn) [SIAIS219102, 7-cyclopentyl-2-((5-(4-(4-((2-(2,6-dioxopiperidin-3-yl)-1,3-dioxoisoindolin-4-yl)thio)butanoyl)piperazin-1-yl)pyridin-2-yl)amino)-N,N-dimethyl-7H-pyrrolo[2,3-d]pyrimidine-6-carboxamide]"
6,1 to 10,"CN(C)C(=O)c1cc2cnc(Nc3ccc(N4CCN(C(=O)CCCCCSc5cccc6c5C(=O)N(C5CCC(=O)NC5=O)C6=O)CC4)cn3)nc2n1C1CCCC1 (stereo not drawn) [SIAIS219104, 7-cyclopentyl-2-((5-(4-(6-((2-(2,6-dioxopiperidin-3-yl)-1,3-dioxoisoindolin-4-yl)thio)hexanoyl)piperazin-1-yl)pyridin-2-yl)amino)-N,N-dimethyl-7H-pyrrolo[2,3-d]pyrimidine-6-carboxamide]"
7,0.04 to 0.2,"CN(C)C(=O)c1cc2cnc(Nc3ccc(N4CCN(C(=O)COCCOCCSc5cccc6c5CN(C5CCC(=O)NC5=O)C6=O)CC4)cn3)nc2n1C1CCCC1 (stereo not drawn) [SIAIS219107, 7-cyclopentyl-2-((5-(4-(2-(2-(2-((2-(2,6-dioxopiperidin-3-yl)-1-oxoisoindolin-4-yl)thio)ethoxy)ethoxy)acetyl)piperazin-1-yl)pyridin-2-yl)amino)-N,N-dimethyl-7H-pyrrolo[2,3-d]pyrimidine-6-carboxamide]"

# Further lines, the compound ahead of its results:
row,Structure (SMILES),DC50 [nM]
1,"CC(=O)c1c(C)c2cnc(Nc3ccc(N4CCN(C(=O)COCCOCCOCCOCCSc5cccc6c5C(=O)N(C5CCC(=O)NC5=O)C6=O)CC4)cn3)nc2n(C2CCCC2)c1=O (stereo not drawn) [SIAIS219061, 4-((14-(4-(6-((6-acetyl-8-cyclopentyl-5-methyl-7-oxo-7,8-dihydropyrido[2,3-d]pyrimidin-2-yl)amino)pyridin-3-yl)piperazin-1-yl)-14-oxo-3,6,9,12-tetraoxatetradecyl)thio)-2-(2,6-dioxopiperidin-3-yl)isoindoline-1,3-dione]",1 to 10
2,"CN(C)C(=O)c1cc2cnc(Nc3ccc(N4CCN(C(=O)CSc5cccc6c5CN(C5CCC(=O)NC5=O)C6=O)CC4)cn3)nc2n1C1CCCC1 (stereo not drawn) [SIAIS219086, 7-cyclopentyl-2-((5-(4-(2-((2-(2,6-dioxopiperidin-3-yl)-1-oxoisoindolin-4-yl)thio)acetyl)piperazin-1-yl)pyridin-2-yl)amino)-N,N-dimethyl-7H-pyrrolo[2,3-d]pyrimidine-6-carboxamide]",< 1
3,"CN(C)C(=O)c1cc2cnc(Nc3ccc(N4CCN(C(=O)CCSc5cccc6c5CN(C5CCC(=O)NC5=O)C6=O)CC4)cn3)nc2n1C1CCCC1 (stereo not drawn) [SIAIS219087, 7-cyclopentyl-2-((5-(4-(3-((2-(2,6-dioxopiperidin-3-yl)-1-oxoisoindolin-4-yl)thio)propanoyl)piperazin-1-yl)pyridin-2-yl)amino)-N,N-dimethyl-7H-pyrrolo[2,3-d]pyrimidine-6-carboxamide]",< 1
4,"CN(C)C(=O)c1cc2cnc(Nc3ccc(N4CCN(C(=O)CCCSc5cccc6c5CN(C5CCC(=O)NC5=O)C6=O)CC4)cn3)nc2n1C1CCCC1 (stereo not drawn) [SIAIS219088, 7-cyclopentyl-2-((5-(4-(4-((2-(2,6-dioxopiperidin-3-yl)-1-oxoisoindolin-4-yl)thio)butanoyl)piperazin-1-yl)pyridin-2-yl)amino)-N,N-dimethyl-7H-pyrrolo[2,3-d]pyrimidine-6-carboxamide]",1 to 10
5,"CN(C)C(=O)c1cc2cnc(Nc3ccc(N4CCN(C(=O)CCCCSc5cccc6c5CN(C5CCC(=O)NC5=O)C6=O)CC4)cn3)nc2n1C1CCCC1 (stereo not drawn) [SIAIS219089, 7-cyclopentyl-2-((5-(4-(5-((2-(2,6-dioxopiperidin-3-yl)-1-oxoisoindolin-4-yl)thio)pentanoyl)piperazin-1-yl)pyridin-2-yl)amino)-N,N-dimethyl-7H-pyrrolo[2,3-d]pyrimidine-6-carboxamide]",1 to 10
6,"CN(C)C(=O)c1cc2cnc(Nc3ccc(N4CCN(C(=O)CCCCCSc5cccc6c5CN(C5CCC(=O)NC5=O)C6=O)CC4)cn3)nc2n1C1CCCC1 (stereo not drawn) [SIAIS219090, 7-cyclopentyl-2-((5-(4-(6-((2-(2,6-dioxopiperidin-3-yl)-1-oxoisoindolin-4-yl)thio)hexanoyl)piperazin-1-yl)pyridin-2-yl)amino)-N,N-dimethyl-7H-pyrrolo[2,3-d]pyrimidine-6-carboxamide]",0.2 to 1
7,"CN(C)C(=O)c1cc2cnc(Nc3ccc(N4CCN(C(=O)CSc5cccc6c5C(=O)N(C5CCC(=O)NC5=O)C6=O)CC4)cn3)nc2n1C1CCCC1 (stereo not drawn) [SIAIS219100, 7-cyclopentyl-2-((5-(4-(2-((2-(2,6-dioxopiperidin-3-yl)-1,3-dioxoisoindolin-4-yl)thio)acetyl)piperazin-1-yl)pyridin-2-yl)amino)-N,N-dimethyl-7H-pyrrolo[2,3-d]pyrimidine-6-carboxamide]",< 0.04
8,"CN(C)C(=O)c1cc2cnc(Nc3ccc(N4CCN(C(=O)CCSc5cccc6c5C(=O)N(C5CCC(=O)NC5=O)C6=O)CC4)cn3)nc2n1C1CCCC1 (stereo not drawn) [SIAIS219101, 7-cyclopentyl-2-((5-(4-(3-((2-(2,6-dioxopiperidin-3-yl)-1,3-dioxoisoindolin-4-yl)thio)propanoyl)piperazin-1-yl)pyridin-2-yl)amino)-N,N-dimethyl-7H-pyrrolo[2,3-d]pyrimidine-6-carboxamide]",< 100
9,"CN(C)C(=O)c1cc2cnc(Nc3ccc(N4CCN(C(=O)CCCCSc5cccc6c5C(=O)N(C5CCC(=O)NC5=O)C6=O)CC4)cn3)nc2n1C1CCCC1 (stereo not drawn) [SIAIS219103, 7-cyclopentyl-2-((5-(4-(5-((2-(2,6-dioxopiperidin-3-yl)-1,3-dioxoisoindolin-4-yl)thio)pentanoyl)piperazin-1-yl)pyridin-2-yl)amino)-N,N-dimethyl-7H-pyrrolo[2,3-d]pyrimidine-6-carboxamide]",< 1
10,"CN(C)C(=O)c1cc2cnc(Nc3ccc(N4CCN(C(=O)COCCOCCOCCSc5cccc6c5CN(C5CCC(=O)NC5=O)C6=O)CC4)cn3)nc2n1C1CCCC1 (stereo not drawn) [SIAIS219108, 7-cyclopentyl-2-((5-(4-(2-(2-(2-(2-((2-(2,6-dioxopiperidin-3-yl)-1-oxoisoindolin-4-yl)thio)ethoxy)ethoxy)ethoxy)acetyl)piperazin-1-yl)pyridin-2-yl)amino)-N,N-dimethyl-7H-pyrrolo[2,3-d]pyrimidine-6-carboxamide]",0.04 to 0.2
11,"CN(C)C(=O)c1cc2cnc(Nc3ccc(N4CCN(C(=O)COCCOCCOCCOCCSc5cccc6c5CN(C5CCC(=O)NC5=O)C6=O)CC4)cn3)nc2n1C1CCCC1 (stereo not drawn) [SIAIS219109, 7-cyclopentyl-2-((5-(4-(14-((2-(2,6-dioxopiperidin-3-yl)-1-oxoisoindolin-4-yl)thio)-3,6,9,12-tetraoxatetradecanoyl)piperazin-1-yl)pyridin-2-yl)amino)-N,N-dimethyl-7H-pyrrolo[2,3-d]pyrimidine-6-carboxamide]",1 to 10
12,"CN(C)C(=O)c1cc2cnc(Nc3ccc(N4CCN(C(=O)COCCOCCOCCOCCOCCSc5cccc6c5CN(C5CCC(=O)NC5=O)C6=O)CC4)cn3)nc2n1C1CCCC1 (stereo not drawn) [SIAIS219110, 7-cyclopentyl-2-((5-(4-(17-((2-(2,6-dioxopiperidin-3-yl)-1-oxoisoindolin-4-yl)thio)-3,6,9,12,15-pentaoxaheptadecanoyl)piperazin-1-yl)pyridin-2-yl)amino)-N,N-dimethyl-7H-pyrrolo[2,3-d]pyrimidine-6-carboxamide]",0.04 to 0.2

# Same assay, conditions: read-out: DC50(nM)/T-47D cell line, 24 h drug treatment
row,Structure (SMILES),DC50 [nM]
1,"CN(C)C(=O)c1cc2cnc(Nc3ccc(N4CCN(C(=O)CCCCCCSc5cccc6c5C(=O)N(C5CCC(=O)NC5=O)C6=O)CC4)cn3)nc2n1C1CCCC1 (stereo not drawn) [SIAIS219105, 7-cyclopentyl-2-((5-(4-(7-((2-(2,6-dioxopiperidin-3-yl)-1,3-dioxoisoindolin-4-yl)thio)heptanoyl)piperazin-1-yl)pyridin-2-yl)amino)-N,N-dimethyl-7H-pyrrolo[2,3-d]pyrimidine-6-carboxamide]",0.04 to 0.2
2,"CN(C)C(=O)c1cc2cnc(Nc3ccc(N4CCN(C(=O)COCCSc5cccc6c5CN(C5CCC(=O)NC5=O)C6=O)CC4)cn3)nc2n1C1CCCC1 (stereo not drawn) [SIAIS219106, 7-cyclopentyl-2-((5-(4-(2-(2-((2-(2,6-dioxopiperidin-3-yl)-1-oxoisoindolin-4-yl)thio)ethoxy)acetyl)piperazin-1-yl)pyridin-2-yl)amino)-N,N-dimethyl-7H-pyrrolo[2,3-d]pyrimidine-6-carboxamide]",0.04 to 0.2
